Holding throughout (experiment): In vitro antibacterial activity test (broth microdilution)
What all share (assay type): cell-based
On the technique in general: Broth dilution looks for growth in wells or tubes with falling amounts of substance.

For assay [1], the system named is A. baumannii 46. As for the experimental part: (§1) To evaluate antibacterial activity of each of the compounds of Examples 1 to 68, in vitro antibacterial activity test was performed.
(§2) The in vitro antibacterial activity was evaluated by measuring MIC90 (ug/mL) of each of the compounds of Examples 1 to 68, which is defined as the lowest concentration of an antibiotic that will inhibit the visible growth of 90% of microorganisms after incubation as compared with a control group to which the antibiotic is not treated. MIC90 values were measured by the broth microdilution method developed by the Clinical and Laboratory Standards Institute (CLSI) (see CLSI M7-A5, Methods for Dilution Antimicrobial Susceptibility Test for Bacteria that Grow Aerobically-Fifth Edition (2000): CLSI, Villanova, Pa.).
(§3) In vitro antibacterial activity was measured with respect to the following 19 clinical isolates: M. catarrhalis; P. aeruginosa (5 strains); K. pneumoniae (6 strains); A. baumannii (3 strains); E. coli (2 strains); A. calcoaceticus; and E. cloacae.
(§4) Test compounds each (the cephalosporin derivative compounds prepared in Examples 1 to 68) were dissolved in DMSO at the concentration of 10,240 ug/mL, were diluted by two fold with DMSO, and then were diluted by twenty fold with sterilized distilled water. The final concentration in the antibacterial activity test was in the range of […] to 128 ug/mL, and the final concentration of DMSO used as an adjuvant was 2.5% (V/V).

In assay [2] the test system is A. baumannii 49. The procedure:
as §1, §2, §3, §4

Assay [3] has as its system A. baumannii 52. As for the experimental part: as §1, §2, §3, §4
Assay [4] concerns A. calcoaceticus ATCC15473. The procedure: as §1, §2, §3, §4
Assay [5] deals with E. cloacae β19. As for the experimental part: as §1, §2, §3, §4
The test system of assay [6] is E. coli AG100. As for the experimental part:
as §1, §2, §3, §4

The subject of assay [7] is E. coli β4. As for the experimental part: as §1, §2, §3, §4
Assay [8] has as its system K. pneumoniae 2011E. The procedure:
as §1, §2, §3, §4

The subject of assay [9] is K. pneumoniae β14. As for the experimental part: as §1, §2, §3, §4
For assay [10], the system named is P. aeruginosa 1912E. The procedure: as §1, §2, §3, §4
The test system of assay [11] is P. aeruginosa 37. The procedure:
as §1, §2, §3, §4

Assay [12] relates to P. aeruginosa 40. The procedure:
as §1, §2, §3, §4

The subject of assay [13] is P. aeruginosa 43. Particulars: Pseudomonas aeruginosa. As for the experimental part:
as §1, §2, §3, §4

Assay [14] has as its system P. aeruginosa 6065Y. The procedure: as §1, §2, §3, §4
[15] abbreviates: Acinetobacter baumannii, A. baumannii 46, read-out: MIC90.
The mark [16] stands for this setting: Acinetobacter baumannii, A. baumannii 49, read-out: MIC90.
[17] abbreviates: Acinetobacter baumannii, A. baumannii 52, read-out: MIC90.
Setting [18] is: Acinetobacter calcoaceticus, A. calcoaceticus ATCC15473, read-out: MIC90.
The mark [19] stands for this setting: Enterobacter cloacae, read-out: MIC90.
The mark [20] stands for this setting: Escherichia coli, AG100, E. coli AG100, read-out: MIC90.
[21] abbreviates: Escherichia coli, read-out: MIC90.
The mark [22] stands for this setting: Klebsiella pneumoniae, 2011E, K. pneumoniae 2011E, read-out: MIC90.
[23] abbreviates: Klebsiella pneumoniae, read-out: MIC90.
Where [24] appears, read: Pseudomonas aeruginosa, 1912E, read-out: MIC90.
The mark [25] stands for this setting: Pseudomonas aeruginosa, 37, P. aeruginosa 37, read-out: MIC90.
Where [26] appears, read: Pseudomonas aeruginosa, 40, P. aeruginosa 40, read-out: MIC90.
Setting [27] is: Pseudomonas aeruginosa, read-out: MIC90.
[28] abbreviates: Acinetobacter baumannii, 46, A. baumannii 46.
The mark [29] stands for this setting: Acinetobacter baumannii, 49, A. baumannii 49.
Setting [30] is: Acinetobacter calcoaceticus, ATCC15473, A. calcoaceticus ATCC15473.
The mark [31] stands for this setting: Pseudomonas aeruginosa, 37, P. aeruginosa 37.

Molecules are shown by their SMILES. Values after ≈ are worked out from the molar mass of the structure shown. Like-named read-outs stand apart in the source and are kept apart here.

A word on the MIC90: it is the lowest concentration that inhibits either 90% of growth or 90% of the strains tested, depending on the study. Take `CNc1nc[n+](CC2=C(C(=O)[O-])N3C(=O)[C@@H](NC(=O)/C(=N\OC(C)(C)C(=O)O)c4csc(N)n4)C3SC2)cc1N` (some centres unmarked) [Compound 39]: the MIC90 in assay [1] (setting [15]) was 8 µg/mL (≈ 13.5 µM); in assay [2] (setting [16]), more than 128 µg/mL; in [3] (setting [17]), more than 128 µg/mL; in [4] (setting [18]) it was 8 µg/mL (≈ 13.5 µM); in assay [5] (setting [19]), 128 µg/mL (≈ 216 µM); in assay [6] (setting [20]) it was 1 µg/mL (≈ 1.69 µM). Moreover, the MIC90 in assay [7] (setting [21]) was 16 µg/mL (≈ 27 µM); in assay [8] (setting [22]), 1 µg/mL (≈ 1.69 µM); in assay [9] (setting [23]), 8 µg/mL (≈ 13.5 µM); in assay [10] (setting [24]), 8 µg/mL (≈ 13.5 µM); in assay [11] (setting [25]), 128 µg/mL (≈ 216 µM); in [12] (setting [26]), 32 µg/mL (≈ 54.1 µM). The MIC90 in [13] (P. aeruginosa 43, read-out: MIC90) was found to be 4 µg/mL (≈ 6.76 µM); in assay [14] (setting [27]), 128 µg/mL (≈ 216 µM).

As for `CC(C)(O/N=C(\C(=O)N[C@@H]1C(=O)N2C(C(=O)[O-])=C(C[n+]3cnc(N)c(NCCNC(=N)N)c3)CSC12)c1csc(N)n1)C(=O)O` (some centres unmarked) [Compound 40], the MIC90 in assay [1] (setting [28]) is 2 µg/mL (≈ 3.02 µM); in assay [2] (setting [29]) it was 128 µg/mL (≈ 193 µM); in [3] (Acinetobacter baumannii, 52), 128 µg/mL (≈ 193 µM); in assay [4] (setting [30]), 0.25 µg/mL (≈ 0.377 µM); in assay [5] (Enterobacter cloacae) it was 32 µg/mL (≈ 48.3 µM); in assay [6] (Escherichia coli, AG100) it was 4 µg/mL (≈ 6.04 µM). The MIC90 in assay [7] (Escherichia coli) worked out at 8 µg/mL (≈ 12.1 µM); in assay [8] (Klebsiella pneumoniae, 2011E), 16 µg/mL (≈ 24.1 µM); in assay [9] (Klebsiella pneumoniae) it was 8 µg/mL (≈ 12.1 µM); in [10] (Pseudomonas aeruginosa, 1912E) it was 4 µg/mL (≈ 6.04 µM); in assay [11] (setting [31]) it was 8 µg/mL (≈ 12.1 µM); in [12] (Pseudomonas aeruginosa, 40) it was 8 µg/mL (≈ 12.1 µM). Moreover, the MIC90 in [13] (43) was 32 µg/mL (≈ 48.3 µM); in [14] (Pseudomonas aeruginosa, 6065Y), 16 µg/mL (≈ 24.1 µM).

Regarding `CC(C)(O/N=C(\C(=O)N[C@@H]1C(=O)N2C(C(=O)[O-])=C(C[n+]3cnc(N)c(NC(=O)CCN)c3)CSC12)c1csc(N)n1)C(=O)O` (some centres unmarked) [Compound 48], the MIC90 in assay [1] (setting [28]) is 8 µg/mL (≈ 12.3 µM); in assay [2] (setting [29]) it was 128 µg/mL (≈ 197 µM); in assay [3] (Acinetobacter baumannii, 52), 128 µg/mL (≈ 197 µM); in assay [4] (setting [30]) it was 0.5 µg/mL (≈ 0.771 µM); in [5] (Enterobacter cloacae), 128 µg/mL (≈ 197 µM); in [6] (Escherichia coli, AG100) it was 2 µg/mL (≈ 3.08 µM). The MIC90 in [7] (Escherichia coli) came to 2 µg/mL (≈ 3.08 µM); in assay [8] (Klebsiella pneumoniae, 2011E) it was 4 µg/mL (≈ 6.17 µM); in [9] (Klebsiella pneumoniae) it was 16 µg/mL (≈ 24.7 µM); in [10] (Pseudomonas aeruginosa, 1912E), 8 µg/mL (≈ 12.3 µM); in assay [11] (setting [31]), 64 µg/mL (≈ 98.7 µM); in assay [12] (Pseudomonas aeruginosa, 40) it was 8 µg/mL (≈ 12.3 µM). Moreover, the MIC90 in assay [14] (Pseudomonas aeruginosa, 6065Y) came to 16 µg/mL (≈ 24.7 µM).

As for `CC(C)(O/N=C(\C(=O)N[C@@H]1C(=O)N2C(C(=O)[O-])=C(C[n+]3cnc(N)c(NCCN)c3)CSC12)c1csc(N)n1)C(=O)O` (some centres unmarked) [Compound 49], the MIC90 in assay [1] (A. baumannii 46) was 8 µg/mL (≈ 12.9 µM); in [2] (A. baumannii 49), 64 µg/mL (≈ 103 µM); in [3] (A. baumannii 52), 64 µg/mL (≈ 103 µM); in [4] (A. calcoaceticus ATCC15473) it was 2 µg/mL (≈ 3.22 µM); in [5] it was 32 µg/mL (≈ 51.6 µM); in [6] (E. coli AG100), 4 µg/mL (≈ 6.44 µM). In addition, the MIC90 in assay [7] is 8 µg/mL (≈ 12.9 µM); in assay [8] (K. pneumoniae 2011E), 8 µg/mL (≈ 12.9 µM); in [9], 32 µg/mL (≈ 51.6 µM); in assay [10], 2 µg/mL (≈ 3.22 µM); in [11] (P. aeruginosa 37), 8 µg/mL (≈ 12.9 µM); in assay [12] (P. aeruginosa 40) it was 4 µg/mL (≈ 6.44 µM). Also, the results for the MIC90 in [13] (43) and in [14] were more than 128 µg/mL and 16 µg/mL (≈ 25.8 µM), respectively.

Take `CC(=O)Nc1c[n+](CC2=C(C(=O)[O-])N3C(=O)[C@@H](NC(=O)/C(=N\OC(C)(C)C(=O)O)c4csc(N)n4)C3SC2)cnc1N` (some centres unmarked) [Compound 68]: the MIC90 in [1] (setting [15]) was 8 µg/mL (≈ 12.9 µM); in assay [2] (setting [16]), 128 µg/mL (≈ 207 µM); in assay [3] (setting [17]), 128 µg/mL (≈ 207 µM); in assay [4] (setting [18]), 1 µg/mL (≈ 1.61 µM); in assay [5] (setting [19]), 128 µg/mL (≈ 207 µM); in assay [6] (setting [20]), 0.5 µg/mL (≈ 0.807 µM). In addition, the MIC90 in [7] (setting [21]) was determined as 8 µg/mL (≈ 12.9 µM); in assay [8] (setting [22]), 1 µg/mL (≈ 1.61 µM); in assay [9] (setting [23]), 32 µg/mL (≈ 51.6 µM); in assay [10] (setting [24]) it was 4 µg/mL (≈ 6.46 µM); in assay [11] (setting [25]), 128 µg/mL (≈ 207 µM); in [12] (setting [26]), 4 µg/mL (≈ 6.46 µM). In assay [14] (setting [27]), the MIC90 came to 16 µg/mL (≈ 25.8 µM).

The values above are taken from patent publication US9630977B2, “Cephalosporin derivatives and pharmaceutical compositions thereof” (Legochem Biosciences, Inc., priority 2011, dated 2017).
